Biological target: T1, FAAH (Homo sapiens, UniProt O00519)
T1 construct: The full length FAAH was subcloned into the mammalian expression vector, pcDEF.neo; expressed in transfected cells; cDNA from Origene
T1 sequence (O00519 1-579): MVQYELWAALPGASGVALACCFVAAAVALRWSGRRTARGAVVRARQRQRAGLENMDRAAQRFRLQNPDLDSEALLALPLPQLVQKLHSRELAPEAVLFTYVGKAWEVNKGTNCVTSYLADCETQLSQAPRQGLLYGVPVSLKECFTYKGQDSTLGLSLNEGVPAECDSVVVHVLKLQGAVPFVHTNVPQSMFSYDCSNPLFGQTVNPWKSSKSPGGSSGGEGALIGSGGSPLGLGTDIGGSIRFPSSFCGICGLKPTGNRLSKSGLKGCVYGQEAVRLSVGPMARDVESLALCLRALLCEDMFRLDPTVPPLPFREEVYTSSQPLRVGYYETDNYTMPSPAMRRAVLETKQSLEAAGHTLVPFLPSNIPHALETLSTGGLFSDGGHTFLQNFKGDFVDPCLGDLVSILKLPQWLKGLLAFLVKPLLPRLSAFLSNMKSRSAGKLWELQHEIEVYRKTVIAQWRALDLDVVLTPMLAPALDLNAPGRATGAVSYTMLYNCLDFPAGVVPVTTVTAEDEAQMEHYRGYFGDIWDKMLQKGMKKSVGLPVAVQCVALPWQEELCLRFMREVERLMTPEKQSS
Test: FAAH enzyme assay, lysate of CHO cells expressing human FAAH
Type: biochemical
Details: cell lysate, read-out: FAAH Human Cell Lysate IC50
Source text: To assist in assay development stable cell lines for human, murine and rat full length FAAH were developed. Human FAAH cDNA (Accession No: NM_001441.1) was purchased from Origene (Rockville, Md.). The full length FAAH was subcloned into the mammalian expression vector, pcDEF.neo, using XbaI and […] restriction sites and used for stable cell line generation.
CHO cells expressing FAAH were used to prepare either crude cell lysate or microsome fractions. To harvest cells, tissue culture media was decanted, the monolayer washed three times with Ca^++Mg^++ free PBS and cells recovered after 15 min in enzyme free dissociation media (Millipore Corp, Billerica, Mass.). Cells were collected by centrifuging at 2000 rpm for 15 min. and the cell pellet re-suspended with 50 mM HEPES (pH 7.4) containing 1 mM EDTA and the protease inhibitors aprotinin (1 mg/ml) and leupeptin (100 μM). The suspension was sonicated at 4° C. and the cell lysate recovered after centrifuging at 12,000×g (14,600 rpm, SS34 rotor) for 20 min at 4° C. to form a crude pellet of cell debris, nuclei, peroxisomes, lysosomes, and mitochondria; the supernatant or cell lysate was used for FAAH enzyme assay. In some cases, microsomes fractions enriched in FAAH were prepared by centrifuging the cell lysate further at 27,000 rpm (100,000×g) in SW28 rotor for 50 minutes at 4° C. The pellet containing FAAH-enriched microsomes was re-suspend in 50 mM HEPES, (pH 7.4) 1 mM EDTA, and any remaining DNA sheared by passage of material through a 23 gauge needle and aliquots of enzyme were store at −80° C. prior to use.
(American Radiolabeled Chemicals; 1 mCi/ml) with FAAH (Life Sciences (1995), 56, 1999-2005 and Journal of Pharmacology and Experimented Therapeutics (1997), 283, 729-734), Analytical. Biochemistry (2003), 318, 270-5. In addition, routine assays were performed monitoring hydrolysis of arachidonyl-7-amino-4-methylcoumarin amide (AAMCA) by following increase in fluorescence upon release of 7-amino 4-methyl coumarin (λEX=355 nm, (λEM=460 nm). Analytical. Biochemistry (2005). 343, 143-51.
Assays are performed on either cell lysate or microsome fractions prepared as described or in whole cell format employing either the fluorescent substrate AAMCA (Cayman chemical, Ann Arbor, Mich.,) or ^3H-anandmaide ([ETHANOLAMINE-1-3H]American Radiolabeled Chemicals; 1 mCi/ml). The cell lysate or microsome assay is performed in Costar black wall, clear bottom plates by adding FAAH_CHO (whole cell, cell lysate or microsome) in assay buffer (50 mM Phosphate, pH 8.0, 1 mM EDTA, 200 mM KCl, 0.2% glycerol, 0.1% fatty acid free BSA) to each well, followed by either DMSO or compound and allowed to incubate at 22-25° C. for fifteen minutes. AAMCA substrate was used to achieve a final concentration of 1 μM and reaction allowed to proceed at room temperature for 1-3 hours. Fluorescent release as a measure of FAAH activity was monitored by reading the plate in a CytoFluor Multiplate Reader ([…]). Whole cell assay is conducted with cells harvested after rinsing tissue culture flasks three times with Ca^++Mg^++ free PBS, incubating for 10 mm in Enzyme free dissociation media and centrifuging for 5 minutes at 1,000 rpm in table top centrifuge. Cells are resuspended in assay buffer at desired cell number in (4×10^4 cells/assay in 96-well format; 1×10^4 cells/assay in 384-well format) and assayed as described.
Alternatively, assays are performed using anandamide [ethanolamine 1-^3H] (specific activity of 10 Ci/mmol) diluted with cold anandamide to achieve a final assay concentration of 1 μM anandamide (˜50,000 cpm). Enzyme (CHO cell lysate, brain or liver homogenate) is incubated in assay buffer (50 mM Phosphate, pH 8.0, 1 mM EDTA, 200 mM KCl, 0.2% glycerol, 0.1% fatty acid free BSA) with inhibitor at 25° C. for 30 minutes. The reaction was terminated by addition of 2 volumes of chloroform:methanol (1:1) and mixed by vortexing. […]

Molecule	IC50 [nM]
6-{4-[(5-chloropyridin-2-yl)sulfanyl]-1-(2-fluoroethyl)-1H-pyrazol-3-yl}-2-(difluoromethyl)quinoline [Example 333]	79
O=C1NCCc2cc(-c3nn(-c4ccc(F)cc4)cc3Sc3ccc(Cl)cc3)ccc21 [Example 308, 6-{4-[(4-chlorophenyl)sulfanyl]-1-(4-fluorophenyl)-1H-pyrazol-3-yl}-3,4-dihydroisoquinolin-1(2H)-one]	18
CCN1CCc2cc(-c3nn(-c4ccc(F)cc4)cc3Sc3ccc(Cl)cc3)ccc2C1=O [Example 309, 6-{4-[(4-chlorophenyl)sulfanyl]-1-(4-fluorophenyl)-1H-pyrazol-3-yl}-2-ethyl-3,4-dihydroisoquinolin-1(2H)-one]	16
O=C1NCCc2cc(-c3n[nH]cc3Sc3ccc(Cl)cc3)ccc21 [Example 310, 6-{4-[(4-chlorophenyl)sulfanyl]-1H-pyrazol-3-yl}-3,4-dihydroisoquinolin-1(2H)-one]	72
O=C1NCCc2cc(-c3nn(CCF)cc3Sc3ccc(Cl)cc3)ccc21 [Example 311]	91
O=c1[nH]cnc2cc(-c3n[nH]cc3Sc3ccc(Cl)cc3)ccc12 [Example 312, 7-{4-[(4-chlorophenyl)sulfanyl]-1H-pyrazol-3-yl}-quinazolin-4(3H)-one]	228
O=c1[nH]cnc2cc(-c3nn(-c4ccc(F)cc4)cc3Sc3ccc(Cl)cc3)ccc12 [Example 313, 7-{4-[(4-chlorophenyl)sulfanyl]-1-(4-fluorophenyl)-1H-pyrazol-3-yl}quinazolin-4(3H)-one]	8.7
O=c1c2ccc(-c3nn(C4CC4)cc3Sc3ccc(Cl)cc3)cc2ncn1C1CC1 [Example 314, 7-{4-[(4-chlorophenyl)sulfanyl]-1-cyclopropyl-1H-pyrazol-3-yl}-3-cyclopropylquinazolin-4(3H)-one]	202
O=c1[nH]cnc2cc(-c3nn(C4CC4)cc3Sc3ccc(Cl)cc3)ccc12 [Example 315, 7-{4-[(4-chlorophenyl)sulfanyl]-1-cyclopropyl-1H-pyrazol-3-yl}quinazolin-4(3H)-one]	86
CN(C)C(=O)c1ccc2cc(-c3n[nH]cc3Sc3ccc(Cl)cn3)ccc2n1 [Example 330, 6-{4-[(5-chloropyridin-2-yl)sulfanyl]-1H-pyrazol-3-yl}-N,N-dimethylquinoline-2-carboxamide]	5.8
CN(C)C(=O)c1ccc2cc(-c3nn(C4CC4)cc3Sc3ccc(Cl)cn3)ccc2n1 [Example 331, 6-{4-[(5-chloropyridin-2-yl)sulfanyl]-1-cyclopropyl-1H-pyrazol-3-yl}-N,N-dimethylquinoline-2-carboxamide]	77
FC(F)c1ccc2cc(-c3n[nH]cc3Sc3ccc(Cl)cn3)ccc2n1 [Example 332]	268
O=C1NCCc2cc(-c3nn(-c4ccccn4)cc3Sc3ccc(Cl)cc3)ccc21 [Example 335]	8
CCN1CCc2cc(-c3nn(-c4ccccn4)cc3Sc3ccc(Cl)cc3)ccc2C1=O [Example 338]	6
O=C1c2ccc(-c3nn(-c4ccccn4)cc3Sc3ccc(Cl)cc3)cc2CCN1CCF [Example 339]	2.7
CCN1CCc2cc(-c3nn(CC)cc3Sc3ccc(Cl)cc3)ccc2C1=O [Example 340]	25
CCn1cc(Sc2ccc(Cl)cc2)c(-c2ccc3c(c2)CCN(CCF)C3=O)n1 [Example 341]	47
CCn1cc(-n2cc(Sc3ccc(Cl)cc3)c(-c3ccc4c(c3)CCNC4=O)n2)cn1 [Example 344]	16
O=C1CCc2cc(-c3nn(-c4ccccn4)cc3Sc3ccc(Cl)cc3)ccc2N1 [Example 345]	36
O=C1CCc2cc(-c3nn(-c4ccccn4)cc3Sc3ccc(Cl)cc3)ccc2N1CCF [Example 346]	15
CCn1cc(-n2cc(Sc3ccc(Cl)cc3)c(-c3ccc4c(=O)[nH]cnc4c3)n2)cn1 [Example 347]	12
CCn1cc(-n2cc(Sc3ccc(Cl)cc3)c(-c3ccc4c(=O)n(-c5cnn(CC)c5)cnc4c3)n2)cn1 [Example 348]	36
CC(C)(O)c1ccc(-c2nn(-c3ccc(F)cn3)cc2Sc2ccc(Cl)cc2)nn1 [Example 349]	59
CC(C)(O)c1ccc(-c2nn(-c3ccc(F)cn3)cc2Sc2ccc(Cl)cn2)nn1 [Example 350]	103
CC(C)(O)c1ccc(-c2nn(-c3cnn(C4CC4)c3)cc2Sc2ccc(Cl)cc2)nn1 [Example 351]	246
CCOC(=O)c1ccc2cc(-c3nn(C)cc3Sc3ccc(Cl)cc3)ccc2n1 [Example 352]	2.2
Cn1cc(Sc2ccc(Cl)cc2)c(-c2ccc3nc(C(N)=O)ccc3c2)n1 [Example 353]	0.47
CCOC(=O)c1ccc2cc(-c3n[nH]cc3Sc3ccc(Cl)cc3)ccc2n1 [Example 354]	0.93

Other lines, results leading:

IC50 [nM]	Molecule
1.38	CCNC(=O)c1ccc2cc(-c3n[nH]cc3Sc3ccc(Cl)cc3)ccc2n1 [Example 355]
121	CC(C)(O)c1ccc2cc(-c3nn(CCF)cc3Sc3ccc(Cl)cc3)ccc2n1 [Example 357]
423	CC(C)(O)c1ccc2cc(-c3n[nH]cc3Sc3ccc(Cl)cc3)ccc2n1 [Example 358]
101	CC(=O)N1CCc2cc(-c3n[nH]cc3Sc3ccc(Cl)cc3)ccc2C1 [Example 359]
9.8	CC(=O)N1CCc2cc(-c3nn(C4CC4)cc3Sc3ccc(Cl)cc3)ccc2C1 [Example 360]
48	CC(=O)N1CCc2cc(-c3nn(CCF)cc3Sc3ccc(Cl)cc3)ccc2C1 [Example 362]
23	N#Cc1ccc2cc(-c3n[nH]cc3Sc3ccc(Cl)cc3)ccc2n1 [Example 363]
131	Cn1cc(Sc2ccc(Cl)cc2)c(-c2ccc3nc(C#N)ccc3c2)n1 [Example 364]
7.2	CCNC(=O)c1ccc2cc(-c3nn(CCF)cc3Sc3ccc(Cl)cc3)ccc2n1 [Example 366]
20	CCNC(=O)c1ccc2cc(-c3nn(CC(F)F)cc3Sc3ccc(Cl)cc3)ccc2n1 [Example 367]
24	CCNC(=O)c1ccc2cc(-c3nn(C(C)C)cc3Sc3ccc(Cl)cc3)ccc2n1 [Example 368]
1.6	CCNC(=O)c1ccc2cc(-c3nn(CC4CC4)cc3Sc3ccc(Cl)cc3)ccc2n1 [Example 369]
12	CCNC(=O)c1ccc2cc(-c3nn(CC(C)C)cc3Sc3ccc(Cl)cc3)ccc2n1 [Example 370]
4	CCOC(=O)c1cnc2cc(-c3nn(CCF)cc3Sc3ccc(Cl)cc3)ccc2c1 [Example 371]
30	OCc1ccc2cc(-c3nn(CCF)cc3Sc3ccc(Cl)cc3)ccc2n1 [Example 372]
